Experimental data taken from patent publication USRE34284E, “Method for assaying proteolytic enzymes” (bioMerieux Vitek, Inc., priority 1992, dated 1993).
Where “and” joins values, the source holds several entries; their conditions need not be identical. Identical values can stand only once. Like-named read-outs stand apart in the source and are kept apart here.

What was measured:
trypsin [1] = assay: Kinetic constants for trypsin-catalyzed hydrolysis of BOC-ARG-MBTH, continuous assay (Example 18); format: biochemical; details: for kc (kinetic catalytic constant) / Km: tris buffer pH 7.8, 590 nm; for Km: read-out: Km (binding constant)
Experimental: Determination of the Kinetic Constants for the Trypsin Catalyzed Hydrolysis of N-(N-t-butoxycarbonyl)-L-Arginyl 3-methyl benzothiazolinone hydrazone (continuous assay)).
In a one cm. cuvette were mixed 3.0 mL of 0.02M tris buffer, pH 7.8, containing 0.02M 3-dimethylamino benzoic acid (DMAB) 0.1 mL of 0.065M potassium ferricyanide, and 0.1 mL of substrate (BOC-ARG-MBTH). The reaction was initiated by the addition of 1 0.1 mL of trypsin (2.33×10^-4 M in 0.1M pyrophosphate buffer, pH 8.3). Eight concentrations of substrate, from 9.98×10^-4 M to 7.8×10^-6 M, were assayed in triplicate. The increase in absorption at 590 nm was monitored continuously and the initial rates were determined. Under the conditions of the assay, a molar absorptivity of 57,000 was used to determine the concentration of the chromogen (MBTH-DMAB) produced by the hydrolysis of substrate. Table I contains the date used to determine the binding and kinetic constants (Km, kc).

trypsin [2] = assay: Continuous assay for trypsin, hydrolysis of Z-GLY-PRO-ARG-MBTH (Example 16); format: biochemical; details: 1 μg trypsin, 0.14M Tris pH 7.8, 0.0131M DMAB, 0.002M potassium ferricyanide, 3% dimethylformamide; substrate 1.74×10^-3, 5.8×10^-4 and 3.9×10^-4 M in triplicate; 590 nm, 5 minutes
Experimental: Saturation kinetics for N-(N-benzyloxycarbonyl)glycyl-L-prolyl-L-arginyl 3-methyl-2-benzothiazolinone hydrazone with trypsin).
A continuous assay for trypsin was performed, i.e., the oxidizing and coupling reagents for color development were included with the substrate in the reaction mixture so that color development may be monitored on a continuous basis with time. In this example the dye precursor is developed to a dye without destroying the enzymatic activity of the enzyme. The reaction was initiated by the addition of 0.1 mL of enzyme (10 μg/mL) to 0.9 mL of buffer solution containing substrate (Z-GLY-PRO-ARG-MBTH) and color developing reagents. The final concentrations in the cuvette were 1 μg trypsin +0.14M Tris buffer, pH 7.8 +0.0131M 3-dimethylamino benzoic acid (DMAB) +0.002M potassium ferricyanide +3% dimethylformamide +substrate. Substrate concentrations of 1.74×10^-3 M, 5.8×10^-4 M and 3.9×10^-4 M were assayed in triplicate. The increases in absorbance at 590 nm were monitored continuously for 5 minutes and the initial rates determined. Using the molar absorptivity of 57,000 for the chromogen produced (MBTH-DMAB), the average rate of hydrolysis was calculated to be 4.43±0.1×10^-6 mol min^-1.

[3] = Woolf-Augustinssen-Hofstee method

Structure (SMILES): Cn1c(=NNC(=O)[C@H](CCCNC(=N)N)NC(=O)OC(C)(C)C)sc2ccccc21 [BOC-ARG-MBTH, N-(N-t-butoxycarbonyl)-L-Arginyl 3-methyl benzothiazolinone hydrazone]
- I/V (trypsin [1]; I/S 100 M^-1): 0.000565 min/M and 0.000528 min/M and 0.000625 min/M
- V/S (trypsin [1]; I/S 100 M^-1): 0.00177 min⁻¹ and 0.0019 min⁻¹ and 0.0016 min⁻¹
- I/V (trypsin [1]; I/S 200 M^-1): 0.000699 min/M and 0.000742 min/M
- V/S (trypsin [1]; I/S 200 M^-1): 0.00287 min⁻¹ and 0.0027 min⁻¹
- I/V (trypsin [1]; I/S 401 M^-1): 0.000766 min/M and 0.00088 min/M and 0.000819 min/M
- V/S (trypsin [1]; I/S 401 M^-1): 0.00523 min⁻¹ and 0.00456 min⁻¹ and 0.00489 min⁻¹
- I/V (trypsin [1]; I/S 802 M^-1): 0.00108 min/M and 0.001188 min/M and 0.001033 min/M
- V/S (trypsin [1]; I/S 802 M^-1): 0.00743 min⁻¹ and 0.00675 min⁻¹ and 0.00776 min⁻¹
- I/V (trypsin [1]; I/S 1603 M^-1): 0.001697 min/M and 0.001607 min/M and 0.001827 min/M
- V/S (trypsin [1]; I/S 1603 M^-1): 0.00945 min⁻¹ and 0.00877 min⁻¹
- I/V (trypsin [1]; I/S 2305 M^-1): 0.002969 min/M and 0.003393 min/M
- V/S (trypsin [1]; I/S 2305 M^-1): 0.01808 min⁻¹ and 0.0108 min⁻¹ and 0.00945 min⁻¹
- I/V (trypsin [1]; I/S 6413 M^-1): 0.005056 min/M and 0.00528 min/M
- V/S (trypsin [1]; I/S 6413 M^-1): 0.01268 min⁻¹ and 0.01215 min⁻¹
- I/V (trypsin [1]; I/S 12826 M^-1): 0.009901 min/M and 0.009506 min/M
- V/S (trypsin [1]; I/S 12826 M^-1): 0.01295 min⁻¹ and 0.01349 min⁻¹
- kc (kinetic catalytic constant) (trypsin [1]; Lineweaver-Burk plot): 0.0436 s⁻¹
- Km (trypsin [1]; Lineweaver-Burk plot): 1410 µM
- kc (kinetic catalytic constant) (trypsin [1]; [3]): 0.0428 s⁻¹
- Km (trypsin [1]; [3]): 1290 µM

Structure (SMILES): Cn1c(=NNC(=O)[C@H](CCCNC(=N)N)NC(=O)[C@@H]2CCCN2C(=O)CNC(=O)OCc2ccccc2)sc2ccccc21 [Z-GLY-PRO-ARG-MBTH, N-(N-benzyloxycarbonyl)glycyl-L-prolyl-L-arginyl 3-methyl-2-benzothiazolinone hydrazone]
- average rate of hydrolysis (trypsin [2]): 4.43±0.1×10^-6 mol min^-1
